{"source": "patent US20050096282A1", "about": "“Adeno-associated virus-delivered ribozyme compositions and methods for the treatment of retinal diseases” (priority 1997, published 2005)", "key": {"[1]": {"tested_on": "P347S rod opsin mRNA target AGGCGUCAGCCUA", "assay": "Ribozyme kinetic analysis, P347S pig", "format": "biochemical", "from_the_text": "(§1) The chief characteristic of diabetic retinopathy is retinal neovascularization-the pathologic spread of blood vessels in the eye. Unique ribozymes have been developed which target the mRNAs that encode various proteins involved in this process. These include ribozymes directed at the wild-type mRNA for the adenosine A2b receptor, for IGF-I (insulin-like growth factor-1) receptor, for inducible nitric oxide synthase (iNOS), and for several integrins implicated in retinal neovascularization (e.g., alpha1, alpha3, alphaV). Also shown in Table 7 are the analyses of P347S ribozymes, that are specific for another mutant form of the rod opsin polypeptide."}, "alphaV integrin mRNA": {"tested_on": "alphaV integrin mRNA", "assay": "Ribozyme kinetic analysis, alpha V integrin", "format": "biochemical", "from_the_text": "as §1"}, "alpha1 integrin mRNA": {"tested_on": "alpha1 integrin mRNA", "assay": "Ribozyme kinetic analysis, alpha 1 integrin", "format": "biochemical", "from_the_text": "as §1"}, "HREC [2]": {"tested_on": "HREC", "assay": "cAMP content of intact HRECs", "format": "cell-based, human", "conditions": "NECA 10 μM", "from_the_text": "The cAMP content of intact HRECs following treatment with adenosine receptor agonists and antagonists was next examined. […] The effect of selective A1 and A2A adenosine receptor antagonists on NECA-induced accumulation of cAMP was also examined."}, "HREC [3]": {"tested_on": "HREC", "assay": "BrdU incorporation (DNA synthesis) in HRECs", "format": "cell-based, human", "conditions": "XAC 10 μM; CPX 20 nM; SCH58261 60 nM", "experimental": "The subtype of adenosine receptor (A2B) that mediates the proliferative effect of adenosine on HREC was determined by the following studies. […] In contrast, neither the A2A adenosine receptor agonist CGS21680 (2-p-(2-carboxyethyl) phenethylamino-5′-N-ethylcarboxamidoadenosine) at concentrations ranging from 10 nM to 10 μM, nor the A1 adenosine receptor agonist CPA (N^6-cyclopentyladenosine) at concentrations ranging from 10 nM to 10 μM increased BrdU incorporation by HRECs. […] In contrast, neither the selective A1 adenosine receptor antagonist CPX (8-cyclopentyl-1,3-dipropylxanthine) at 20 nM, nor the selective A2A adenosine receptor antagonist SCH58261 (5-amino-7-(2-phenylethyl)-2-(2-furyl)-pyrazolo(4,3-E)-1,2,4-trizolo(1,5-c) pyrimidine) at 60 nM attenuated the stimulatory effect of NECA on BrdU incorporation by HRECs. These findings indicate that the proliferative effects of NECA are mediated by the A2B adenosine receptor in HREC in culture (Table 3)."}, "alpha3 integrin mRNA": {"tested_on": "alpha3 integrin mRNA", "assay": "Ribozyme kinetic analysis, alpha 3 integrin", "format": "biochemical", "from_the_text": "as §1"}, "[4]": {"tested_on": "adenosine A2b receptor mRNA", "assay": "Ribozyme kinetic analysis, A2B", "format": "biochemical", "from_the_text": "as §1"}, "[5]": {"conditions": "per experiment, Rz 1 target GCGCGUCUUCCCG, Rz 2 target ACUGGUCUUCUAC"}, "[6]": {"conditions": "per experiment, Rz 1 target AGAUGUCUAUAAG, Rz 2 target GAGAGUCUCAUGA"}, "[7]": {"conditions": "per experiment, Rz 1 target CUAUGCCUUCAUG, Rz 2 target CGCUGUCUUCCAC"}, "[8]": {"conditions": "per experiment, target CAUGUCUCUUUG"}}, "note": "“And” between values parts separate entries of the source, which are not always exact repeats. Equal values may be shown once.", "data": [{"compound": "P347S pig: ribozyme UAGGCUCUGAUGAGCCGCUUCGGCGGCAAACGCCU (SEQ ID NO:102), P347S mutant rod opsin mRNA (listed as RNA, chemistry not given here)", "values": [{"measurement": "Km", "setting": "[1]; mean", "result": 2.05, "unit": "µM"}, {"measurement": "Vmax", "setting": "[1]; mean", "result": 7.3, "unit": "nM/min"}, {"measurement": "kcat", "setting": "[1]; mean", "result": 1.5, "unit": "min − 1"}, {"measurement": "Km", "setting": "[1]; per experiment", "result": "1.65 µM and 1.68 µM and 2.84 µM"}, {"measurement": "kcat", "setting": "[1]; per experiment", "result": "1.8 min − 1 and 2.2 min − 1 and 1.3 min − 1 and 1.1 min − 1 and 1.2 min − 1"}]}, {"compound": "alpha V Rz 1: ribozyme CGGGAACUGAUGAGCCGUUCGCGGCGAAACGCGC (SEQ ID NO:98), alphaV integrin mRNA (RNA, backbone not given here)", "values": [{"measurement": "Km", "setting": "alphaV integrin mRNA; mean", "result": 5.2, "unit": "µM"}, {"measurement": "Vmax", "setting": "alphaV integrin mRNA; mean", "result": 33.4, "unit": "nM/min"}, {"measurement": "kcat", "setting": "alphaV integrin mRNA; mean", "result": 2.2, "unit": "min − 1"}, {"measurement": "Km", "setting": "alphaV integrin mRNA; [5]", "result": "4.98 µM and 5.41 µM"}, {"measurement": "Vmax", "setting": "alphaV integrin mRNA; [5]", "result": "30.5 nM/min and 36.2 nM/min"}, {"measurement": "kcat", "setting": "alphaV integrin mRNA; [5]", "result": "2.0 min − 1 and 2.4 min − 1"}]}, {"compound": "alpha 1 Rz 2: ribozyme UCAUGACUGAUGAGCCGUUCGCGGCGAAACUCUC (SEQ ID NO:97), alpha1 integrin mRNA (RNA, backbone not given here)", "values": [{"measurement": "Km", "setting": "alpha1 integrin mRNA; mean", "result": 42.2, "unit": "µM"}, {"measurement": "Vmax", "setting": "alpha1 integrin mRNA; mean", "result": 42.2, "unit": "nM/min"}, {"measurement": "kcat", "setting": "alpha1 integrin mRNA; mean", "result": 2.9, "unit": "min − 1"}, {"measurement": "Km", "setting": "alpha1 integrin mRNA; [6]", "result": "30.6 µM and 53.8 µM"}, {"measurement": "Vmax", "setting": "alpha1 integrin mRNA; [6]", "result": "31.0 nM/min and 53.5 nM/min"}, {"measurement": "kcat", "setting": "alpha1 integrin mRNA; [6]", "result": "2.1 min − 1 and 3.6 min − 1"}]}, {"compound": "CCCn1c(=O)c2[nH]c(C3CCCC3)nc2n(CCC)c1=O", "note": "[CPX, 8-cyclopentyl-1,3-dipropylxanthine]", "values": [{"measurement": "inhibition of NECA-induced increase in cAMP content in HRECs", "setting": "HREC [2]", "result": "not signficantly inhibited"}, {"measurement": "attenuation of NECA-stimulated BrdU incorporation by HRECs", "setting": "HREC [3]", "result": "neither"}]}, {"compound": "alpha 1 Rz 1: ribozyme CUUAUACUGAUGAGCCGUUCGCGGCGAAACAUCU (SEQ ID NO:96), alpha1 integrin mRNA (RNA, backbone not given here)", "values": [{"measurement": "Km", "setting": "alpha1 integrin mRNA; mean", "result": 25.6, "unit": "µM"}, {"measurement": "Vmax", "setting": "alpha1 integrin mRNA; mean", "result": 57.0, "unit": "nM/min"}, {"measurement": "kcat", "setting": "alpha1 integrin mRNA; mean", "result": 3.8, "unit": "min − 1"}, {"measurement": "Vmax", "setting": "alpha1 integrin mRNA; [6]", "result": "61.7 nM/min and 52.4 nM/min"}, {"measurement": "kcat", "setting": "alpha1 integrin mRNA; [6]", "result": "4.1 min − 1 and 3.5 min − 1"}]}, {"compound": "alpha 3 Rz 1: ribozyme CAUGAACUGAUGAGCCGUUCGCGGCGAAACAUAG (SEQ ID NO:92), alpha3 integrin mRNA (RNA, backbone not given here)", "values": [{"measurement": "Km", "setting": "alpha3 integrin mRNA; mean", "result": 4.16, "unit": "µM"}, {"measurement": "Vmax", "setting": "alpha3 integrin mRNA; mean", "result": 6.2, "unit": "nM/min"}, {"measurement": "kcat", "setting": "alpha3 integrin mRNA; mean", "result": 0.4, "unit": "min − 1"}, {"measurement": "Km", "setting": "alpha3 integrin mRNA; [7]", "result": "3.62 µM and 4.69 µM"}, {"measurement": "Vmax", "setting": "alpha3 integrin mRNA; [7]", "result": "5.4 nM/min and 6.9 nM/min"}, {"measurement": "kcat", "setting": "alpha3 integrin mRNA; [7]", "result": "0.4 min − 1 and 0.5 min − 1"}]}, {"compound": "alpha 3 Rz 2: ribozyme GUGGAACUGAUGAGCCGUUCGCGGCGAAACAGCG (SEQ ID NO:93), alpha3 integrin mRNA (RNA, backbone not given here)", "values": [{"measurement": "Km", "setting": "alpha3 integrin mRNA; mean", "result": 1.45, "unit": "µM"}, {"measurement": "Vmax", "setting": "alpha3 integrin mRNA; mean", "result": 2.5, "unit": "nM/min"}, {"measurement": "kcat", "setting": "alpha3 integrin mRNA; mean", "result": 0.2, "unit": "min − 1"}, {"measurement": "Km", "setting": "alpha3 integrin mRNA; [7]", "result": "1.66 µM and 1.24 µM"}, {"measurement": "Vmax", "setting": "alpha3 integrin mRNA; [7]", "result": "2.8 nM/min and 2.2 nM/min"}, {"measurement": "kcat", "setting": "alpha3 integrin mRNA; [7]", "result": 0.2, "unit": "min − 1"}]}, {"compound": "alpha V Rz 2: ribozyme GUAGAACUGAUGAGCCGUUCGCGGCGAAACCAGU (SEQ ID NO:99), alphaV integrin mRNA (RNA, backbone not given here)", "values": [{"measurement": "Km", "setting": "alphaV integrin mRNA; mean", "result": 11.3, "unit": "µM"}, {"measurement": "Vmax", "setting": "alphaV integrin mRNA; mean", "result": 285.7, "unit": "nM/min"}, {"measurement": "kcat", "setting": "alphaV integrin mRNA; mean", "result": 19.1, "unit": "min − 1"}, {"measurement": "Km", "setting": "alphaV integrin mRNA; [5]", "result": "8.54 µM and 14 µM"}, {"measurement": "Vmax", "setting": "alphaV integrin mRNA; [5]", "result": "238.1 nM/min and 333.3 nM/min"}, {"measurement": "kcat", "setting": "alphaV integrin mRNA; [5]", "result": "15.9 min − 1 and 22.2 min − 1"}]}, {"compound": "Nc1nc2c(cnn2CCc2ccccc2)c2nc(-c3ccco3)nn12", "note": "[SCH58261, 5-amino-7-(2-phenylethyl)-2-(2-furyl)-pyrazolo(4,3-E)-1,2,4-trizolo(1,5-c) pyrimidine]", "values": [{"measurement": "inhibition of NECA-induced increase in cAMP content in HRECs", "setting": "HREC [2]", "result": "not signficantly inhibited"}, {"measurement": "attenuation of NECA-stimulated BrdU incorporation by HRECs", "setting": "HREC [3]", "result": "neither"}]}, {"compound": "A2B Rz 1: hammerhead ribozyme CAAAGACUGAUGAGCCGUUCGCGGCGAAACAUGU (SEQ ID NO:90), adenosine A2b receptor mRNA (RNA, backbone not given here)", "values": [{"measurement": "Km", "setting": "[4]; mean", "result": 4.35, "unit": "µM"}, {"measurement": "Vmax", "setting": "[4]; mean", "result": 541.7, "unit": "nM/min"}, {"measurement": "kcat", "setting": "[4]; mean", "result": 36.1, "unit": "min − 1"}, {"measurement": "Km", "setting": "[4]; [8]", "result": "5.07 µM and 3.63 µM"}, {"measurement": "Vmax", "setting": "[4]; [8]", "result": "666.7 nM/min and 416.7 nM/min"}, {"measurement": "kcat", "setting": "[4]; [8]", "result": "44.4 min − 1 and 27.8 min − 1"}]}]}
